system: not listed separately; assay: Cytotoxicity against human BE(2)-C cells after 18 to 20 hrs by MTT assay; assay type: cell-based; settings: not given

Row | SMILES | CC50
1 | O=C(NCCc1ccncc1)C1CCN(C(=O)[C@H]2CCCN2C(=O)c2ccc(Cl)cc2)CC1 | > 100 µM
2 | O=C(NCCc1ccncc1)C1CCN(C(=O)[C@@H]2CCCN2Cc2ccc(Cl)cc2)CC1 | 91.6 µM
3 | O=C(NCCc1ccncc1)C1CCN(c2cc(=O)n(Cc3ccc(Cl)cc3)c3ccccc23)CC1 | 34.1 µM
4 | O=C(NCCc1ccncc1)C1CCN(c2cc(=O)n(-c3ccc(Cl)cc3)c3ccccc23)CC1 | > 100 µM
5 | O=C(NCCc1ccncc1)C1CCN(C(=O)NCc2ccc(Cl)cc2)CC1 | > 100 µM
6 | O=C(NCCc1ccncc1)C1CCN(C(=O)CCc2ccc(Cl)cc2)CC1 | > 100 µM
7 | O=C(NCCc1ccncc1)C1CCN(C(=O)c2cccc3c2[nH]c2ccc(Cl)cc23)CC1 | 66.1 µM
8 | O=C(NCCc1ccncc1)C1CCN(C(=O)[C@H]2CCCN2Cc2ccc(Cl)cc2)CC1 | > 100 µM
9 | O=C(NCCc1ccncc1)C1CCN(C(=O)Cc2ccc(Cl)cc2)CC1 | > 100 µM
10 | O=C(NCCc1ccncc1)C1CCN(C(=O)c2cccc3c2[nH]c2ccccc23)CC1 | > 100 µM

system: Western equine encephalitis virus; assay: microbe, parasite or virus in culture; settings: BE(2)-C

Row | SMILES | IC50
11 | O=C(NCCc1ccncc1)C1CCN(C(=O)[C@H]2CCCN2C(=O)c2ccc(Cl)cc2)CC1 | > 100 µM
12 | O=C(NCCc1ccncc1)C1CCN(C(=O)[C@@H]2CCCN2C(=O)c2ccc(Cl)cc2)CC1 | > 100 µM
13 | O=C(NCCc1ccncc1)C1CCN(C(=O)[C@@H]2CCCN2Cc2ccc(Cl)cc2)CC1 | 13.5 µM
14 | O=C(NCCc1ccncc1)C1CCN(c2cc(=O)n(Cc3ccc(Cl)cc3)c3ccccc23)CC1 | 10.9 µM
15 | O=C(NCCc1ccncc1)C1CCN(C(=O)NCc2ccc(Cl)cc2)CC1 | 60.2 µM
16 | O=C(NCCc1ccncc1)C1CCN(C(=O)CCc2ccc(Cl)cc2)CC1 | > 100 µM
17 | O=C(NCCc1ccncc1)C1CCN(C(=O)c2cccc3c2[nH]c2ccc(Cl)cc23)CC1 | 18.7 µM
18 | O=C(NCCc1ccncc1)C1CCN(C(=O)[C@H]2CCCN2Cc2ccc(Cl)cc2)CC1 | 53.5 µM
19 | O=C(NCCc1ccncc1)C1CCN(C(=O)Cc2ccc(Cl)cc2)CC1 | > 100 µM
20 | O=C(NCCc1ccncc1)C1CCN(C(=O)c2cccc3c2[nH]c2ccccc23)CC1 | 59.2 µM

target: ATP-dependent translocase ABCB1 (Homo sapiens, UniProt P08183); assay: Inhibition of human MDR1 expressed in MDCK2 cells assessed as increase of rhodamine 123 uptake at 5 uM up to 240 mins; assay type: ADME, cell-based; design: scale not given: the % may be the effect or the level left; settings: mdck-ii, 4 h
Sequence (P08183 whole entry): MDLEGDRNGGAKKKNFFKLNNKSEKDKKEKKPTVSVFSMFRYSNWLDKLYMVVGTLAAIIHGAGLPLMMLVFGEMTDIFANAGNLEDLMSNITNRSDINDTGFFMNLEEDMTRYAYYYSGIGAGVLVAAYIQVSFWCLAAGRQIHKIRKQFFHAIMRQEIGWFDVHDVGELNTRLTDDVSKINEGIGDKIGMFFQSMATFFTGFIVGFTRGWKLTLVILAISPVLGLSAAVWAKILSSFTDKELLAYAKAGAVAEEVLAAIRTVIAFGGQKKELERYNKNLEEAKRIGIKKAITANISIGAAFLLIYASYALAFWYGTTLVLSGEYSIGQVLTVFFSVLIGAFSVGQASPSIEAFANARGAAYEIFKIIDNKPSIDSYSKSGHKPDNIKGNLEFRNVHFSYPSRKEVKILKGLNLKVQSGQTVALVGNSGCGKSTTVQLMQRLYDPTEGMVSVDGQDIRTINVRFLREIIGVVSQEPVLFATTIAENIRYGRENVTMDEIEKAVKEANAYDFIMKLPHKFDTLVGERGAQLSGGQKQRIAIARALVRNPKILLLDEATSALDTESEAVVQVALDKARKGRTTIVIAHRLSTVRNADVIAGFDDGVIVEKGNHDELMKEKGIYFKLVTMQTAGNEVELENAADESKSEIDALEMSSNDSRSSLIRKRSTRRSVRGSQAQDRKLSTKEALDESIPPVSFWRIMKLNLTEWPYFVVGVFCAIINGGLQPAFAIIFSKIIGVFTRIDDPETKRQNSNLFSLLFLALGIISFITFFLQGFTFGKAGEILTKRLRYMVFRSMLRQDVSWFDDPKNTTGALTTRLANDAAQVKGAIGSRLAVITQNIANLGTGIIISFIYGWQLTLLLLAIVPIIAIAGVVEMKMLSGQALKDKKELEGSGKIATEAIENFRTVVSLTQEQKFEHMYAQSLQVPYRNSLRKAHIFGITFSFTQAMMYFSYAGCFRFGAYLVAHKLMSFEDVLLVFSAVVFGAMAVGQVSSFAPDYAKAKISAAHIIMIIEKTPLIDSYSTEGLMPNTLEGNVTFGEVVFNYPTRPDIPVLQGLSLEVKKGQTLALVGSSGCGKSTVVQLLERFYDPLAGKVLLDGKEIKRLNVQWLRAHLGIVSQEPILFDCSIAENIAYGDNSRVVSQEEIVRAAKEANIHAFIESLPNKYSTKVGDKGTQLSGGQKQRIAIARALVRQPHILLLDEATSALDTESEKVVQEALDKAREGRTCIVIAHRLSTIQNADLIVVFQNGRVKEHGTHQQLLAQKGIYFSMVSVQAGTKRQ

Row | SMILES | Activity
21 | COc1cc2c(cc1OC)CN(CCc1ccc(NC(=O)c3cc(OC)c(OC)cc3NC(=O)c3cnc4ccccc4c3)cc1)CC2 | 1123%

Reference: ChEMBL document CHEMBL3396967, “Discovery of anthranilamides as a novel class of inhibitors of neurotropic alphavirus replication” (Bioorg Med Chem, 2015)
